For data set [1], the system named is Mus musculus. Kind of data set: Toxicity in mouse at 60 mg/kg. Format: organism-based. The following applies: in vivo. Further details: dose 60 mg/kg.
The subject of data set [2] is HUVEC. Kind of data set: Antiangiogenic activity against HUVEC assessed as inhibition VEGF-stimulated tubule formation at 10 ug/ml after 11 days by microscopy. It counts as functional, cell-based. The conditions noted are these: Homo sapiens.
The subject of data set [3] is HUVEC. Briefly: Inhibition of VEGF-induced HUVEC migration after 22 hrs by microscopy. It counts as functional, cell-based. The following applies: Homo sapiens.
Data set [4] concerns HUVEC. Briefly: Inhibition of protein tyrosine kinase in HUVEC lysates at 1 ug/ml after 2 hrs. Format: cell-based. The following applies: Homo sapiens.
The test system of data set [5] is HUVEC. Briefly: Inhibition of VEGF-induced HUVEC migration at 10 ug/ml after 22 hrs by microscopy. Format: functional. The conditions noted are these: Homo sapiens.
For data set [6], the system named is HUVEC. Kind of data set: Inhibition of VEGF-induced HUVEC migration at 1 ug/ml after 22 hrs by microscopy. It counts as functional. The following applies: Homo sapiens.
Data set [7] has as its system HUVEC. Kind of data set: Antiproliferative activity against HUVEC after 72 hrs by MTT assay. Format: cell-based. The following applies: Homo sapiens. (Formazan colour is commonly taken as a measure of viable cells.)
Data set [8] deals with HUVEC. Kind of data set: Inhibition of protein tyrosine kinase in HUVEC lysates at 100 ug/ml after 2 hrs. It counts as cell-based. The following applies: Homo sapiens.
Data set [9] has as its system NHDF. Briefly: Antiangiogenic activity against NHDF assessed as inhibition VEGF-stimulated tubule formation at 10 ug/ml after 11 days by microscopy. The conditions noted are these: Homo sapiens. Format: functional, cell-based.
Data set [10] has as its system HUVEC. Briefly: Inhibition of protein tyrosine kinase in HUVEC lysates at 10 ug/ml after 2 hrs. It counts as cell-based. The conditions noted are these: Homo sapiens.
Data set [11] concerns HUVEC. Kind of data set: Inhibition of VEGF-induced HUVEC migration at 0.1 ug/ml after 22 hrs by microscopy. It counts as functional. The conditions noted are these: Homo sapiens.
Data set [12] in a line: Inhibition of protein tyrosine kinase in HUVEC lysates after 2 hrs. It counts as cell-based, Homo sapiens.
Another data set relates to HeLa. Kind of data set: Cytotoxicity against human HeLa cells after 72 hrs by WST8 assay. Format: functional, cell-based.
In data set [13] the test system is NHDF. Briefly: Cytotoxicity against NHDF after 72 hrs by WST8 assay. It counts as cell-based. The following applies: Homo sapiens.
The subject of data set [14] is P388. Kind of data set: Antitumor activity against mouse P388 cells xenografted in mouse. It counts as functional.
The species named for data set [15] is Mus musculus. Kind of data set: Toxicity in mouse assessed as reduction of body weight. The following applies: in vivo. It counts as organism-based.
The subject of data set [16] is P388. Briefly: Antitumor activity against mouse P388 cells xenografted in mouse at 20 mg/kg. Format: functional, organism-based. Further details: dose 20 mg/kg.

The source made the active and inactive calls. The rule behind the calls is not given here. Some results are limits rather than exact numbers.

In the case of `Cc1cc(=O)c2c(O)c3c(O)cc(O)c(-c4c(O)cc(O)c5c(O)c6c(=O)cc(C)oc6cc45)c3cc2o1` [USTILAGINOIDIN A], the Activity result in the data set with Mus musculus [1] is on record as “Toxic”.

As a reminder, the inhibition is how much of the control response was suppressed. For orientation: IC50 means the concentration that inhibits the measured activity by half. Read a low IC50 as greater potency in that assay. Turning to `CC(=O)Cc1cc(=O)c2c(O)c3c(O)cc(O)c(-c4c(O)cc(O)c5c(O)c6c(=O)cc(C)oc6cc45)c3cc2o1` [HYPOCHROMIN B], the inhibition result in the data set with HUVEC [2] and in the data set on NHDF [9] was “Active” in each case. Moreover, the IC50 with HUVEC [3] was 1.51 µM; with HUVEC [7], 13.1 µM; in data set [12] it was 18 µM. The inhibition in the data set with HUVEC [4] turned out to be 12.4%; with HUVEC [8], 72.4%; with HUVEC [10] it was 50%. In addition, the inhibition at 10 µg/mL with HUVEC [5] stood at 95.6%. Besides, in the data set on HUVEC [6], the inhibition at 1 µg/mL was found to be 53.3%. This molecule gave an inhibition at 0.1 µg/mL in the data set with HUVEC [11] of 33.3%.

Take `CC(=O)Cc1cc(=O)c2c(O)c3c(O)cc(O)c(-c4c(O)cc(O)c5c(O)c6c(=O)cc(CC(C)=O)oc6cc45)c3cc2o1`: the half-maximal inhibitory concentration (IC50) with HeLa is 209 µM; in the data set on HUVEC [3], 1.09 µM; in the data set with NHDF [13] it was greater than 500 µM; with HUVEC [7] it was 17.4 µM; in data set [12], 42.1 µM. Moreover, the inhibition entry in the data set with HUVEC [2] and in the data set with NHDF [9] was “Active” throughout. In addition, the inhibition stood at 11% in the data set with HUVEC [4], 66.2% in the data set with HUVEC [8] and 38.3% in the data set with HUVEC [10]. Moreover, testing at 10 µg/mL in the data set with HUVEC [5] gave an inhibition of 86.7%. Testing at 1 µg/mL in the data set on HUVEC [6] gave an inhibition of 57.8%. In addition, in the data set on HUVEC [11], the inhibition at 0.1 µg/mL is 20%.

Regarding `Cc1oc2cc3c(-c4c(O)cc(O)c5c(O)c6c(cc45)O[C@@H](C)[C@H](C)C6=O)c(O)cc(O)c3c(O)c2c(=O)c1C` [CHAETOCHROMIN D], the outcome in the data set on P388 [14] was Active. In addition, in the data set filed under Mus musculus [15], the Activity entry is on record as “Toxic”.

As to `CC1CC(=O)c2c(cc3c(-c4c(O)cc(O)c5c(O)c6c(cc45)O[C@H](C)[C@@H](C)C6=O)c(O)cc(O)c3c2O)O1` (stereo not given in full) [CHAETOCHROMIN C], the outcome in the data set on P388 [14] was Active. For the same molecule, in the data set listed under Mus musculus [15], the Activity entry is “Toxic”.

Take `Cc1cc(=O)c2c(O)c3c(O)cc(O)c(-c4c(O)cc(O)c5c(O)c6c(cc45)OC(C)CC6=O)c3cc2o1` (stereo not given) [USTILAGINOIDIN G]: the outcome in the data set on P388 [14] was Active. Further, the Activity result in the data set filed under Mus musculus [15] is “Toxic”.

As for `C[C@@H]1Oc2cc3c(-c4c(O)cc(O)c5c(O)c6c(cc45)O[C@H](C)[C@@H](C)C6=O)c(O)cc(O)c3c(O)c2C(=O)[C@@H]1C` [CHAETOCHROMIN B], in the data set on P388 [14], the outcome was Active. Also, the Activity result in the data set filed under Mus musculus [15] is on record as “Toxic”.

Take `C[C@H]1Oc2cc3c(-c4c(O)cc(O)c5c(O)c6c(cc45)O[C@H](C)[C@@H](C)C6=O)c(O)cc(O)c3c(O)c2C(=O)[C@@H]1C`: the result in the data set on P388 [16] was Active.

For the molecule `CC(=O)Cc1cc(=O)c2c(O)c3c(O)cc(O)c(-c4c(O)cc(O)c5c(O)c6c(=O)cc(CC(C)O)oc6cc45)c3cc2o1` (stereo not given) [HYPOCHROMIN A], the inhibition entry in the data set on HUVEC [2] and with NHDF [9] was “Active” each time. Moreover, the IC50 amounted to 0.87 µM in the data set on HUVEC [3], 50 µM in the data set with HUVEC [7] and 58.7 µM in data set [12]. For the same molecule, the inhibition in the data set with HUVEC [4] amounted to 0%; in the data set with HUVEC [8] it was 73.4%; with HUVEC [10] it was 21.9%. The molecule further returned an inhibition at 10 µg/mL in the data set on HUVEC [5] of 100%. For the same molecule, at 1 µg/mL the inhibition in the data set on HUVEC [6] was 62.2%. Also, the inhibition at 0.1 µg/mL in the data set on HUVEC [11] came to 28.9%.

(Values after ChEMBL document CHEMBL1157075, “Antiangiogenic metabolites from a marine-derived fungus, Hypocrea vinosa” (J Nat Prod, 2010).)
